For one assay, the system named is dengue virus type 2. Description: Functional assay to measure dose dependent changes in antiviral-drug inhibitory efficacy against Dengue virus type 2 New Guinea C in Vero E6 miRFP670 cells (cotreated with P-gp inhibitor, CP100356). Cells are treated with antiviral candidates that are serially diluted, following infection, cells are fixed. EC50 is reported via analysis of fluorescence intensity using high-content imager. The …. It is filed as organism-based, Chlorocebus sabaeus, Vero C1008. To be noted: Dengue virus.

A further assay relates to Zika virus. Description: Functional CPE-based assay to measure dose dependent changes in antiviral-drug inhibitory efficacy against Zika virus MR766 in Vero E6 miRFP670 cells. Cells are treated with antiviral candidates that are serially diluted. EC50 is reported via analysis of MTS assay as a readout of CPE. The assay has been performed by KU Leuven. It is filed as organism-based, Chlorocebus sabaeus, Vero C1008. To be noted: Zika virus. (Tetrazolium dyes change colour on reduction, which living cells bring about.)

Regarding `O=C(Nc1cc(Cl)cc(-c2ccc3[nH]nc(C(=O)O)c3c2)c1)OCc1ccccc1`, the EC50 with dengue virus type 2 (Vero C1008) and in the assay on Zika virus (Vero C1008) was above 50 µM each time. For the same compound, the EC90 (commonly the concentration at which the effect reaches the 90% level) is above 50 µM with dengue virus type 2 (Vero C1008, Maximum measured 168.4 %, Minimum measured 111.066 %, P-gp concentration 500 nM, P-gp inhibitor CP100356) and above 50 µM with Zika virus (Vero C1008, Baseline response 0 %, Hill slope 0.266, Maximum measured 1.773 %, Maximum response 100 %, Minimum measured -0.573 %, R squared 0.018).

`COc1cccc(-c2ccc([C@@H](NC(=O)OCc3ccccc3)C(=O)Nc3cccc(CN)c3)cc2)c1`: the EC50 (in general, the midpoint of the concentration-response curve) with dengue virus type 2 (Vero C1008) is 11.3 µM; in the assay on Zika virus (Vero C1008) it was above 50 µM. The EC90 in the assay on dengue virus type 2 (Vero C1008) was 13 µM; with Zika virus (Vero C1008, Maximum measured 5.224 %, Minimum measured -9.76 %), above 50 µM.

As for `NCc1cccc(NC(=O)c2cc(Cl)cc(C(N)=O)c2)c1`, the EC50 is above 50 µM with dengue virus type 2 (Vero C1008) and below 0.391 µM with Zika virus (Vero C1008). In addition, the EC90 with dengue virus type 2 (Vero C1008, Maximum measured 162.876 %, Minimum measured 96.337 %, P-gp concentration 500 nM, P-gp inhibitor CP100356) is above 50 µM; in the assay with Zika virus (Vero C1008, Baseline response 0 %, Hill slope -0.109, Maximum measured 5.527 %, Maximum response 100 %, Minimum measured 1.124 %, R squared 0.046) it was below 0.391 µM.

`Cn1ncc2c(C(=O)Nc3ccc4c(c3)CNC4)cc(Br)cc21`: the EC50 with dengue virus type 2 (Vero C1008) is below 0.391 µM; in the assay with Zika virus (Vero C1008), above 50 µM. Besides, the EC90 in the assay on dengue virus type 2 (Vero C1008, Baseline response 0 %, Hill slope 1.42, Maximum measured 130.593 %, Maximum response 100 %, Minimum measured 71.5 %, P-gp concentration 500 nM, R squared 0.202, P-gp inhibitor CP100356) is below 0.391 µM; with Zika virus (Vero C1008, Baseline response 0 %, Hill slope 2.334, Maximum measured 28.881 %, Maximum response 100 %, Minimum measured -5.706 %, R squared 0.821), above 50 µM.

`NCc1cccc(NC(=O)[C@H](NC(=O)OCc2ccccc2)C2CCC(c3ccccc3)CC2)c1` (stereo partly specified): the values for the EC50 in the assay with dengue virus type 2 (Vero C1008) and in the assay with Zika virus (Vero C1008) were 6.69 µM and above 50 µM, respectively. The EC90 in the assay with dengue virus type 2 (Vero C1008, Baseline response 0 %, EC90 CI (lower) 1.121 uM, EC90 CI (upper) 23.089 uM, Hill slope -8.04, Maximum measured 108.249 %, Maximum response 100 %, Minimum measured 2.62 %, P-gp concentration 500 nM, R squared 0.836, P-gp inhibitor CP100356) was 8.79 µM; with Zika virus (Vero C1008, Baseline response 0 %, Hill slope 12.54, Maximum measured 11.506 %, Maximum response 100 %, Minimum measured -10.271 %, R squared 0.094), above 50 µM.

`CNC(=O)[C@H](Nc1cc(CN)cc(C(=O)O)c1)c1cc(Cl)cc(NC(=O)OCc2ccccc2)c1`: the EC50 with dengue virus type 2 (Vero C1008) and with Zika virus (Vero C1008) was above 50 µM in each case. Further, the EC90 in the assay with dengue virus type 2 (Vero C1008, Maximum measured 124.943 %, Minimum measured 103.159 %, P-gp concentration 500 nM, P-gp inhibitor CP100356) was above 50 µM; in the assay on Zika virus (Vero C1008, Baseline response 0 %, Hill slope -2.362, Maximum measured 1.225 %, Maximum response 100 %, Minimum measured -2.193 %, R squared 0.027), above 50 µM.

Consider `C[C@@]1(c2cccc(CN)c2)C[C@H]1c1cc(Cl)cc(NC(=O)OCc2ccccc2)c1`, for which the values for the EC50 with dengue virus type 2 (Vero C1008) and in the assay on Zika virus (Vero C1008) were 2.11 µM and above 50 µM, respectively. In addition, the EC90 with dengue virus type 2 (Vero C1008, Baseline response 0 %, Hill slope -1.211, Maximum measured 80.402 %, Maximum response 100 %, Minimum measured 6.127 %, P-gp concentration 500 nM, R squared 0.862, P-gp inhibitor CP100356) was above 6.25 µM; in the assay on Zika virus (Vero C1008, Maximum measured 2.64 %, Minimum measured -3.015 %), above 50 µM.

Regarding `OCC#C[C@H](Nc1ccc2c(c1)CNC2)c1cc(Cl)cc2[nH]ncc12`, the EC50 in the assay on dengue virus type 2 (Vero C1008) and in the assay on Zika virus (Vero C1008) was above 50 µM throughout. For the same compound, the EC90 in the assay on dengue virus type 2 (Vero C1008, Baseline response 0 %, Hill slope -0.86, Maximum measured 99.542 %, Maximum response 100 %, Minimum measured 57.079 %, P-gp concentration 500 nM, R squared 0.671, P-gp inhibitor CP100356) was above 50 µM; in the assay on Zika virus (Vero C1008, Baseline response 0 %, Hill slope -0.322, Maximum measured 7.802 %, Maximum response 100 %, Minimum measured -1.073 %, R squared 0.225) it was above 50 µM; in the assay on Zika virus (Vero C1008, Maximum measured -0.957 %, Minimum measured -6.863 %) it was above 50 µM.

As for `NCc1cc(/C=C/C(=O)O)cc(NC(=O)c2cc(Cl)cc(NC(=O)OCc3ccccc3)c2)c1`, the EC50 with dengue virus type 2 (Vero C1008) and in the assay with Zika virus (Vero C1008) was above 50 µM throughout. Further, the EC90 with dengue virus type 2 (Vero C1008, Maximum measured 167.512 %, Minimum measured 81.46 %, P-gp concentration 500 nM, P-gp inhibitor CP100356) was above 50 µM; with Zika virus (Vero C1008, Baseline response 0 %, Hill slope -0.386, Maximum measured 1.272 %, Maximum response 100 %, Minimum measured -0.891 %, R squared 0.02), above 50 µM.

Consider `C=CC[C@H](Nc1cc(Cl)cc(NC(=O)OCc2ccccc2)c1)c1ccc(-c2nn[nH]n2)cc1`, for which the results for the EC50 with dengue virus type 2 (Vero C1008) and in the assay with Zika virus (Vero C1008) were below 0.391 µM and 2.26 µM, respectively. Further, the EC90 in the assay with dengue virus type 2 (Vero C1008) was 0.683 µM; in the assay on Zika virus (Vero C1008, Baseline response 0 %, EC90 CI (lower) 3.03 uM, EC90 CI (upper) 8.689 uM, Hill slope 2.685, Maximum measured 114.091 %, Maximum response 100 %, Minimum measured 6.468 %, R squared 0.926), 5.13 µM.

Consider `CCNC(=O)Nc1cc(Cl)cc(C(=O)Nc2cccc(CN)c2)c1`, for which the EC50 in the assay with dengue virus type 2 (Vero C1008) and in the assay with Zika virus (Vero C1008) was above 50 µM throughout. Moreover, the EC90 in the assay on dengue virus type 2 (Vero C1008, Maximum measured 108.516 %, Minimum measured 107.498 %, P-gp concentration 500 nM, P-gp inhibitor CP100356) is above 50 µM; in the assay on Zika virus (Vero C1008, Baseline response 0 %, Hill slope -0.392, Maximum measured 2.06 %, Maximum response 100 %, Minimum measured -2.343 %, R squared 0.131) it was above 50 µM.

Take `NCc1cc(NC(=O)c2cc(Cl)cc(NC(=O)OCc3ccccc3)c2)cc([C@@H]2C[C@H]2C(=O)O)c1`: the EC50 was above 12.5 µM in the assay with dengue virus type 2 (Vero C1008) and above 50 µM in the assay on Zika virus (Vero C1008). The EC90 with dengue virus type 2 (Vero C1008, Maximum measured 109.098 %, Minimum measured 97.886 %, P-gp concentration 500 nM, P-gp inhibitor CP100356) is above 12.5 µM; in the assay with Zika virus (Vero C1008, Maximum measured -4.084 %, Minimum measured -7.869 %), above 50 µM.

Consider `O=C(NC1CCCCC1)c1cc(Cl)ccc1NS(=O)(=O)c1ccc(Oc2ccccc2Cl)cc1`, for which the EC50 in the assay with dengue virus type 2 (Vero C1008) is 3.2 µM; in the assay on Zika virus (Vero C1008), above 50 µM. Besides, the EC90 with dengue virus type 2 (Vero C1008) is 3.72 µM; in the assay with Zika virus (Vero C1008, Baseline response 0 %, Hill slope 0.673, Maximum measured 7.428 %, Maximum response 100 %, Minimum measured -1.415 %, R squared 0.499), above 50 µM.

In the case of `CC(C)Oc1ccc(S(=O)(=O)Nc2ccc(Cl)cc2C(=O)O)cc1`, the half-maximal effective concentration (EC50) with dengue virus type 2 (Vero C1008) is 11.1 µM; in the assay with Zika virus (Vero C1008) it was above 50 µM. Also, the EC90 was 11.6 µM in the assay with dengue virus type 2 (Vero C1008, Baseline response 0 %, Hill slope -49.91, Maximum measured 106.831 %, Maximum response 100 %, Minimum measured 0.108 %, P-gp concentration 500 nM, R squared 0.989, P-gp inhibitor CP100356) and above 50 µM in the assay on Zika virus (Vero C1008, Baseline response 0 %, Hill slope 0.349, Maximum measured 6.596 %, Maximum response 100 %, Minimum measured -0.897 %, R squared 0.277).

On to `O=C(O)c1cc(Cl)c(F)cc1S(=O)(=O)Nc1ccc(Oc2ccccc2Cl)cc1`, for which the EC50 was found to be 25.1 µM with dengue virus type 2 (Vero C1008) and 39.6 µM in the assay with Zika virus (Vero C1008). Besides, the EC90 with dengue virus type 2 (Vero C1008, Baseline response 0 %, Hill slope -22.82, Maximum measured 108.329 %, Maximum response 100 %, Minimum measured 0.118 %, P-gp concentration 500 nM, R squared 0.881, P-gp inhibitor CP100356) amounted to 27.7 µM; in the assay on Zika virus (Vero C1008, Baseline response 0 %, EC90 CI (lower) 44.524 uM, EC90 CI (upper) 54.445 uM, Hill slope 10.107, Maximum measured 91.318 %, Maximum response 100 %, Minimum measured 0.941 %, R squared 0.971), 49.2 µM.

For the compound `CCOCCNC(=O)c1cc(Cl)ccc1NS(=O)(=O)c1ccc(Oc2ccccc2Cl)cc1`, the EC50 is 7.26 µM in the assay with dengue virus type 2 (Vero C1008) and above 50 µM with Zika virus (Vero C1008). The EC90 in the assay on dengue virus type 2 (Vero C1008, Baseline response 0 %, EC90 CI (lower) 5.297 uM, EC90 CI (upper) 7.186 uM, Hill slope -13.477, Maximum measured 106.241 %, Maximum response 100 %, Minimum measured 0.021 %, P-gp concentration 500 nM, R squared 0.993, P-gp inhibitor CP100356) was 8.55 µM; with Zika virus (Vero C1008, Maximum measured 1.013 %, Minimum measured -2.996 %) it was above 50 µM.

For `O=C(Nc1cccc(-c2nnn[nH]2)c1)c1cc(Cl)cc2[nH]ncc12`, the EC50 in the assay on dengue virus type 2 (Vero C1008) and in the assay with Zika virus (Vero C1008) was above 50 µM in each case. The EC90 in the assay with dengue virus type 2 (Vero C1008, Maximum measured 107.824 %, Minimum measured 101.456 %, P-gp concentration 500 nM, P-gp inhibitor CP100356) was above 50 µM; with Zika virus (Vero C1008, Maximum measured 0.889 %, Minimum measured -1.258 %), above 50 µM.

For `CC(=O)NCc1cccc(NC(=O)c2cc(Cl)cc(NC(=O)OCc3ccccc3)c2)c1`, the EC50 was 10.4 µM with dengue virus type 2 (Vero C1008) and above 50 µM in the assay with Zika virus (Vero C1008). Moreover, the EC90 with dengue virus type 2 (Vero C1008, Baseline response 0 %, EC90 CI (lower) 4.143 uM, EC90 CI (upper) 6.94 uM, Hill slope -3.293, Maximum measured 105.977 %, Maximum response 100 %, Minimum measured 1.058 %, P-gp concentration 500 nM, R squared 0.979, P-gp inhibitor CP100356) was 20.4 µM; with Zika virus (Vero C1008, Baseline response 0 %, Hill slope 0.809, Maximum measured 24.23 %, Maximum response 100 %, Minimum measured -4.371 %, R squared 0.519), above 50 µM.

For `CCCNC(=O)[C@H](Nc1cccc(-c2nn[nH]n2)c1)c1cc(Cl)cc(NC(=O)OCc2ccccc2)c1`, the EC50 in the assay on dengue virus type 2 (Vero C1008) and with Zika virus (Vero C1008) was above 50 µM each time. Besides, the EC90 in the assay on dengue virus type 2 (Vero C1008, Baseline response 0 %, Hill slope 1.238, Maximum measured 113.655 %, Maximum response 100 %, Minimum measured 85.317 %, P-gp concentration 500 nM, R squared 0.426, P-gp inhibitor CP100356) was above 50 µM; in the assay on Zika virus (Vero C1008, Baseline response 0 %, Hill slope 3.408, Maximum measured 22.38 %, Maximum response 100 %, Minimum measured 1.712 %, R squared 0.919), above 50 µM.

`O=C(Nc1cccc(-c2nnn[nH]2)c1)c1cc(Cl)cc(C2CC2)c1`: the EC50 in the assay with dengue virus type 2 (Vero C1008) and in the assay with Zika virus (Vero C1008) was above 50 µM each time. Further, the EC90 with dengue virus type 2 (Vero C1008, Maximum measured 109.091 %, Minimum measured 105.083 %, P-gp concentration 500 nM, P-gp inhibitor CP100356) is above 50 µM; in the assay with Zika virus (Vero C1008, Maximum measured 1.772 %, Minimum measured -2.796 %) it was above 50 µM.
